Laboratory results published in US20140163095A1, “USE OF ERIBULIN IN THE TREATMENT OF BREAST CANCER” (priority 2012, published 2014).
Marks after values point to notes of the source that are not given here.

Tests used:
[1] = tested on: locally recurrent or metastatic HER2 negative breast cancer; assay: Phase II clinical trial of eribulin mesylate as first-line treatment (Part 2, additional data); assay type: in vivo, human
Excerpt: This example provides additional data obtained from the study described above in Example 2. The baseline demographics and characteristics of patients in the study are as set forth below in Table 6.

[2] = tested on: subjects with locally recurrent or metastatic HER2 negative breast cancer; assay: Phase II first-line trial, safety outcomes
Method: (§1) A multi-center, single-arm, phase II clinical trial of eribulin mesylate was performed to evaluate the objective response rate (ORR) (according to RECIST v1.1) to first-line treatment with single-agent eribulin mesylate in subjects with locally recurrent or metastatic HER2 negative breast cancer. Secondary objectives included the safety and tolerability of eribulin mesylate, time to first response, duration of response (DOR), and progression free survival (PFS).

[3] = tested on: locally recurrent or metastatic HER2 negative breast cancer; assay: Phase II clinical trial of eribulin mesylate as first-line treatment (Part 1); assay type: in vivo, human; settings: for DOR (duration of response), Median months (95% CI) / TTR (time to first response), Median months (95% CI): 13 responders
Method: as §1
Patients were excluded from the study if they had inflammatory breast cancer or had received prior chemotherapy, biologic therapy, or investigational therapy for locally recurrent or metastatic breast cancer (patients who received prior endocrine therapy were permitted).
HER2 status was determined by either fluorescence in situ hybridization (FISH) or 0 or 1+ by immunohistochemical (IHC) staining. Subjects with an HER2:FISH ratio of 1.8:2.2 were eligible, consistent with ASCO/CAP guidelines (Wolff et al., J. Clin. Oncol. 25:118-145, 2007).

[4] = ER−/PR−/HER2−, n 2, CI not available
[5] = All Subjects, listed as eribulin

C=C1C[C@@H]2CC[C@@]34C[C@H]5O[C@H]6[C@@H](O3)[C@H]3O[C@H](CC[C@@H]3O[C@H]6[C@H]5O4)CC(=O)C[C@@H]3[C@@H](OC)[C@@H](C[C@H](O)CN)O[C@H]3C[C@H]3O[C@@H](CC[C@@H]1O2)C[C@@H](C)C3=C.CS(=O)(=O)O [Eribulin, 11,15:18,21:24,28-Triepoxy-7,9-ethano-12,15-methano-9H,15H-furo[3,2-i]furo[2′,3′:5,6]pyrano[4,3-b][1,4]dioxacyclopentacosin-5(4H)-one, 2-[(2S)-3-amino-2-hydroxypropyl]hexacosahydro-3-methoxy-26-methyl-20,27-bis(methylene)-, (2R,3R,3aS,7R,8aS,9S,10aR,11S,12R,13aR,13bS,15S,18S,21S,24S,26R,28R,29aS)-methanesulfonate (salt)]
DOR (duration of response), Median months (95% CI) ([1]; ALL, 16 responders): 5.8 (4.7-10.6) months
TTR (time to first response), Median months (95% CI) ([1]; ALL, 16 responders): 1.4 (1.2-2.7) months
TTR (time to first response), Median months (95% CI) ([1]; ALL, 16 responders, listed as eribulin): 1.4 months
PFS, Median months (95% CI) ([1]; ALL, N 56): 6.8 (4.4-7.6) months
PFS, Median months (95% CI) ([1]; ALL, N 56, listed as eribulin): 6.8 months
Clinical benefit rate (CR + PR + ≧6 months SD) ([1]; ALL, N = 56): 29 (51.8) n (%)
Complete response (CR) ([1]; ALL, N = 56): 0 n (%)
Disease control rate (CR + PR + SD) ([1]; ALL, N = 56): 42 (75.0) n (%)
Not evaluable/unknown (response category) ([1]; ALL, N = 56): 3 (5.4) n (%)
Objective response rate (ORR) ([1]; ALL, N = 56): 16 (28.6) n (%)
Partial response (PR) ([1]; ALL, N = 56): 16 (28.6) n (%)
Progressive disease (PD) ([1]; ALL, N = 56): 11 (19.6) n (%)
ORR ([1]; ER+ subgroup): 34.1%
disease control rate ([1]; ER+ subgroup): 85.4%
DOR, Median months (95% CI) ([1]; ER+, n 14): 7.4 (4.6-27.5) months
TTR, Median months (95% CI) ([1]; ER+, n 14): 2.0 (1.3-2.7) months
PFS, Median months (95% CI) ([1]; ER+, n 41): 7.4 (6.1-11.9) months
PFS, Median months (95% CI) ([1]; ER+, n 41, listed as eribulin): 7.4 months
Clinical benefit rate (CR + PR + ≧6 months SD) ([1]; ER+, n = 41): 26 (63.4) n (%)
Complete response (CR) ([1]; ER+, n = 41): 0 n (%)
Disease control rate (CR + PR + SD) ([1]; ER+, n = 41): 35 (85.4) n (%)
Not evaluable/unknown (response category) ([1]; ER+, n = 41): 1 (2.4) n (%)
Objective response rate (ORR) ([1]; ER+, n = 41): 14 (34.1) n (%)
Partial response (PR) ([1]; ER+, n = 41): 14 (34.1) n (%)
Progressive disease (PD) ([1]; ER+, n = 41): 5 (12.2) n (%)
DOR, Median months [1, 4]: 5.2* months
TTR, Median months [1, 4]: 1.1* months
PFS, Median months (95% CI) ([1]; ER−/PR−/HER2−, n 12): 3.4 (1.2-6.8) months
sum of target lesion diameters from baseline to postbaseline nadir ([1]; FIG. 12, in words): majority of patients experienced a decrease
Objective response rate (ORR) ([1]; Triple negative (ER−/PR−/HER2−), n = 12): 2 (16.1) n (%)
Clinical benefit rate (CR + PR + ≧6 months SD) ([1]; Triple negative, n = 12): 3 (25.0) n (%)
Complete response (CR) ([1]; Triple negative, n = 12): 0 n (%)
Disease control rate (CR + PR + SD) ([1]; Triple negative, n = 12): 6 (50.0) n (%)
Not evaluable/unknown (response category) ([1]; Triple negative, n = 12): 1 (8.3) n (%)
Partial response (PR) ([1]; Triple negative, n = 12): 2 (16.7) n (%)
Progressive disease (PD) ([1]; Triple negative, n = 12): 5 (41.7) n (%)
ORR ([1]; all patients (16/56)): 28.6%
median PFS ([1]; patients who did not receive prior A/T): 5.7 months
median PFS ([1]; patients who had received prior A/T): 5.9 months
clinical benefit rate (CBR) ([1]; patients with prior A/T (15/33)): 45.5%
ORR ([1]; patients with prior neo/adjuvant anthracyclines and/or taxanes (A/T) (9/33)): 27.3%
incidence of markedly abnormal lab value: low platelets ([2]; 1/51): 2%
leucopenia (treatment-related SAE) ([2]; 1 patient): 1.8%
patients with an abnormal but not clinically significant finding ([2]; 3/52, throughout the study): 5.8%
Febrile neutropenia (treatment-related SAE) ([2]; 3 patients): 5.4%
Treatment-related SAEs ([2]; 5 patients): 8.9%
patients who discontinued the study due to an AE ([2]; 6 patients): 10.7%
incidence of markedly abnormal lab value: low lymphocytes ([2]; 8/44): 18.2%
incidence of markedly abnormal lab value: low hemoglobin ([2]; 8/55): 14.5%
patients with dose interrupted/delayed due to treatment-related AEs ([2]; 20 patients): 35.7%
patients with dose reduced due to treatment-related AEs ([2]; 20 patients): 35.7%
Treatment-related AEs leading to dose adjustment (interruption/delay, reduction, or discontinuation) ([2]; 30 patients): 53.6%
incidence of markedly abnormal lab value: low leukocytes ([2]; 31/54): 57.4%
patients with a treatment-related AE with CTCAE grade ¾ ([2]; 36 patients): 64.3%
incidence of markedly abnormal lab value: low neutrophils ([2]; 41/53): 77.4%
Treatment-related AE: Alopecia ([2]; All grades, N = 56): 47 (83.9) n (%)
Treatment-related AE: Anemia ([2]; All grades, N = 56): 20 (35.7) n (%)
Treatment-related AE: Constipation ([2]; All grades, N = 56): 15 (26.8) n (%)
Treatment-related AE: Diarrhea ([2]; All grades, N = 56): 14 (25.0) n (%)
Treatment-related AE: Fatigue ([2]; All grades, N = 56): 34 (60.7) n (%)
Treatment-related AE: Leukopenia ([2]; All grades, N = 56): 19 (33.9) n (%)
Treatment-related AE: Nausea ([2]; All grades, N = 56): 27 (48.2) n (%)
Treatment-related AE: Neutropenia ([2]; All grades, N = 56): 40 (71.4) n (%)
Treatment-related AE: Peripheral neuropathy ([2]; All grades, N = 56): 32 (57.1) n (%)
Treatment-related AE: Anemia ([2]; Grade 3/4, N = 56): 2 (3.6) n (%)
Treatment-related AE: Constipation ([2]; Grade 3/4, N = 56): 0 n (%)
Treatment-related AE: Diarrhea ([2]; Grade 3/4, N = 56): 0 n (%)
Treatment-related AE: Fatigue ([2]; Grade 3/4, N = 56): 1 (1.8) n (%)
Treatment-related AE: Leukopenia ([2]; Grade 3/4, N = 56): 12 (21.4) n (%)
Treatment-related AE: Nausea ([2]; Grade 3/4, N = 56): 0 n (%)
Treatment-related AE: Neutropenia ([2]; Grade 3/4, N = 56): 28 (50.0) n (%)
Treatment-related AE: Peripheral neuropathy ([2]; Grade 3/4, N = 56): 11 (19.6) n (%)
Alopecia, neutropenia, fatigue, and peripheral neuropathy (most commonly observed treatment-related AEs), each occurring in patients ([2]; human, in vivo): > 50%
duration of grade ¾ peripheral neuropathy (median) ([2]; human, in vivo): 2.3 months
median time to first occurrence of peripheral neuropathy ([2]; human, in vivo): 4 months
AE requiring drug withdrawal in the remaining discontinued patient ([2]; in words): prolonged QT interval requiring drug withdrawal
grade ¾ neutropenia, patients ([2]; most common grade ¾ AE): 50%
Febrile neutropenia (grade 3/4) ([2]; number of patients): 4 patients
discontinuations for which peripheral neuropathy was responsible ([2]; of the 6 events resulting in discontinuations): 5
DOR (duration of response), Median months (95% CI) ([3]; All Subjects): 7.4 (3.29, NE) months
TTR (time to first response), Median months (95% CI) ([3]; All Subjects): 1.4 (1.31, 2.69) months
DOR (duration of response), Median months (95% CI) [3, 5]: 7.4 months
TTR (time to first response), Median months (95% CI) [3, 5]: 1.4 months
PFS, Median months (95% CI) ([3]; All Subjects, N 48): 5.9 (3.48, 7.39) months
PFS, Median months (95% CI) ([3]; All Subjects, N 48, listed as eribulin): 5.9 months
Clinical benefit rate (CR + PR + durable SD) ([3]; All, N = 48): 22 (45.8) n (%)
Complete response (CR) ([3]; All, N = 48): 0 n (%)
Disease control rate (CR + PR + SD) ([3]; All, N = 48): 36 (75.0) n (%)
Not evaluable/unknown (response category) ([3]; All, N = 48): 1 (2.1) n (%)
Objective response rate (ORR) ([3]; All, N = 48): 13 (27.1) n (%)
Partial response (PR) ([3]; All, N = 48): 13 (27.1) n (%)
Progressive disease (PD) ([3]; All, N = 48): 11 (22.9) n (%)
DOR, Median months (95% CI) ([3]; ER+ Subjects, N 10): 7.4 (3.29, NE) months
TTR, Median months (95% CI) ([3]; ER+ Subjects, N 10): 1.4 (1.22, 2.66) months
PFS, Median months (95% CI) ([3]; ER+ Subjects, N 35): 6.7 (4.14, 8.54) months
Clinical benefit rate (CR + PR + durable SD) ([3]; ER+, N = 35): 19 (54.3) n (%)
Complete response (CR) ([3]; ER+, N = 35): 0 n (%)
Disease control rate (CR + PR + SD) ([3]; ER+, N = 35): 29 (82.9) n (%)
Not evaluable/unknown (response category) ([3]; ER+, N = 35): 0 n (%)
Objective response rate (ORR) ([3]; ER+, N = 35): 10 (28.6) n (%)
Partial response (PR) ([3]; ER+, N = 35): 10 (28.6) n (%)
Progressive disease (PD) ([3]; ER+, N = 35): 6 (17.1) n (%)
sum of target lesion diameters from baseline to post-baseline nadir ([3]; FIG. 10, in words): majority of patients experienced a decrease
Objective response rate (ORR) ([3]; Triple Negative (ER−/PR−/HER2−), N = 10): 3 (30.0) n (%)
TTR, Median months (95% CI) ([3]; Triple Negative Subjects, N 3): 2.9 (1.15, 5.59) months
PFS, Median months (95% CI) ([3]; Triple Negative Subjects, N 10): 4.7 (1.05, NE) months
Clinical benefit rate (CR + PR + durable SD) ([3]; Triple Negative, N = 10): 3 (30.0) n (%)
Complete response (CR) ([3]; Triple Negative, N = 10): 0 n (%)
Disease control rate (CR + PR + SD) ([3]; Triple Negative, N = 10): 6 (60.0) n (%)
Not evaluable/unknown (response category) ([3]; Triple Negative, N = 10): 1 (10.0) n (%)
Partial response (PR) ([3]; Triple Negative, N = 10): 3 (30.0) n (%)
Progressive disease (PD) ([3]; Triple Negative, N = 10): 3 (30.0) n (%)
Objective response rate (ORR) ([3]; all patients (13/48)): 27.1%
